row,SMILES,melting point [°C]
1,Cc1ccc(C(=O)Nc2ccc(CN3CCN(C)CC3)cc2)cc1Nc1nccc(-c2cccnc2)n1,153 to 155
2,Nc1cccc(-c2nn(Cc3oc4ccccc4c(=O)c3-c3ccccc3)c3ncnc(N)c23)c1,157 to 159
3,O=C1c2ccc3cccnc3c2N=CC1S(=O)(=O)CC(F)(F)F (stereo not drawn),272 to 274
4,Nc1c2c(nc3ccccc13)C1CCC2CC1,197 to 199
5,CC(C)CCC(O)C(CC1CCCCC1)NC(=O)C(Cc1c[nH]cn1)N(C)C(=O)C(Cc1ccccc1)OC(=O)N(C)CCN(C)C(=O)C(C)C (stereo not drawn),68 to 72
6,CCc1nc2ccc(OC(F)(F)F)cc2[nH]1,135 to 137
7,CCOC(=O)Cc1c(-c2ccccc2)nn2cccnc12,86 to 89
8,COc1ccc2c(c1)CCC(NCC(=O)O)C2 (stereo not drawn),195 to 198
9,Cc1ccc(-n2c3ccc(C)cc3c3cc(-n4ccnc4-c4nccn4-c4ccc5c(c4)c4cc(C)ccc4n5-c4ccc(C)cc4)ccc32)cc1,208 to 214
10,CC1(C)Oc2cc([N+](=O)[O-])c(N)cc2[C@@H](N2CCCC2=O)[C@@H]1O (relative stereo),244 to 245
11,Cc1c(OCc2ccccc2)ccc2cncn12,52 to 54
12,O=c1c2c(c3cccnc3n1-c1ccccc1)CCCC2,160 to 162
13,CC1(C)OCc2cc(C(=O)CBr)ccc2O1,52 to 54
14,CCN1C(C(=O)Nc2coc3ccccc3c2=O)C(=O)c2ccccc2S1(=O)=O (stereo not drawn),235 to 237
15,O=[N+]([O-])c1c(Cl)cccc1NCCO,78
16,O=C(O)c1ccc(-c2c3ccccc3nn2Cc2ccc(F)cc2)cc1,237 to 239
17,CCN1C(=O)Cc2cc(OCc3ccccc3C(=O)O)ccc21,180 to 181
18,COC(=O)c1cnc(N)c([N+](=O)[O-])c1,195 to 196
19,Nc1ncc(Sc2cccnc2)s1,140 to 142
20,NC(=O)NC(=S)NC(=O)c1ccc(Cl)cc1,155 to 158
21,COc1ccc([N+](=O)[O-])c(N2CCCC2)c1,46 to 48.5
22,CCOC(=O)Cc1ccc(NC(=O)C(COc2ccc(Cl)cc2)NS(=O)(=O)c2ccc(F)cc2)cc1 (racemic),132 to 134
23,Cc1cc(C(=O)N2Cc3cccn3Cc3ccccc32)ccc1N,232 to 234
24,O=C1N[C@H](CCl)[C@@H]1N1C(=O)c2ccccc2C1=O (relative stereo),172
25,COc1ccc(O)c(C2(O)C(=O)Nc3cccc(Br)c32)n1 (stereo not drawn),172 to 175

# The next lines start with the values.
row,melting point [°C],SMILES
1,165 to 168,CC(=O)NC[C@H]1CN(c2ccc(N3C[C@H]4CN(C(=O)OCc5ccccc5)C[C@H]4C3)c(F)c2)C(=O)O1
2,91 to 93,COC(=O)c1ccc(Cl)cc1NC(=O)CSc1ccc(C)cc1
3,126 to 130,O=Cc1ccc(OCc2cn3c(Cl)cccc3n2)cc1
4,132 to 134,O=C1c2ccccc2COc2ccc(CCOC(c3ccccc3)(c3ccccc3)c3ccccc3)cc21
5,250 to 252,Cc1c(C(=O)Nc2ccc(N3CCC(N4CCOCC4)CC3)c(C#N)c2)cnn1-c1ccc(Br)cc1
6,138 to 140,CNCC1Cc2cc(C(F)(F)F)cc(-c3cc(F)ccc3F)c2O1 (stereo not drawn)
7,85 to 88,CCCC(C)Nc1c([N+](=O)[O-])cc(S(C)(=O)=O)c(C)c1[N+](=O)[O-] (stereo not drawn)
8,132,CC(=O)N1CCC(C)(C)c2c(C)ccc(CCN3CCN(c4nsc5ccccc45)CC3)c21
9,85 to 89,O=C1CCCCCCCCCCC(=O)O1
10,68 to 69,CCCCCCCCCCNC(=O)N(O)CCCC(=O)OCC
11,77 to 80,CC(=NOC(C)C)c1ccc2c(c1)ncn2-c1cccc(-c2cccnc2)c1
12,173 to 175,CCCCOc1c(CN)n(CC(C)C)c(=O)c2ccc(/C=C/C(N)=O)cc12
13,62 to 63,O=[N+]([O-])c1cc(Cl)c(OCC(F)(F)C(F)(F)F)c(Cl)c1F

# Source: a melting point compilation (Tetko et al.; mined from patent text by program, amines drawn as free bases though some values may be those of a salt)
